Here are results for three compounds from US20260240792A1, “COMPOSITIONS FOR TREATING 5-HT2 CONDITIONS AND METHODS OF USING THE SAME” (Board of Supervisors of Louisiana State University and …, priority 2022, published 2026).

Entries after “also recorded” stand apart in the source; their conditions may differ.

One data set relates to C6 glioma cells. Particulars: cocktail of TNF-α and INF-γ, read-out: IC50 for block of LPS and cytokine stimulated nitrite accumulation; cited from earlier work.
For data set [1], the system named is TGF-Induced SMAD-mediated signaling. Kind of data set: TGF-β induced SMAD-mediated signaling, dual luciferase reporters. It is filed as cell-based. A general note: In a reporter assay the amount or activity of a reporter protein is the signal.
The next data set has as its system Normal Human Fibroblasts. The experiment in a line: TGF-β transformation of normal human fibroblasts to myofibroblasts. The class given is cell-based. Particulars: TGF-β treated human fibroblasts.
A further data set addresses 5-HT2A receptors (Homo sapiens, UniProt P28223). Particulars: cited from earlier work.
A short description of data set [2]: Solubility in ophthalmic eye drop (BSS, 0.5% CMC). The following applies: 0.1% (5 mg/5 mL) in BSS with 0.5% CMC, pH 7.0. It is filed as physicochemical. The protocol: Non-Limiting, Exemplary Findings Discussed within: • The NCE Compound 1 was formulated within an ophthalmic eye drop with BSS and 0.5% carboxymethylcellulose (CMC) at percentages of 0.1% (5 mg/5 ml) and lower with a pH of 7.0.
• The R-DOI HCl was formulated within an ophthalmic eye drop with BSS and 0.5% carboxymethylcellulose (CMC) at percentages of 0.1% (5 mg/5 mL) and lower with a pH of 7.0.

In data set [3] the test system is rabbits. Kind of data set: Tear film production by Schirmer's Tear Flo Strips in rabbits. It is filed as in vivo, rabbit. Here is the method: Each eye of each rabbit was assessed for tear film production by Schirmer's Tear Flo Strips at a 30 second interval of analysis. Tear measures were evaluated by a digital caliper to determine mm of tears collected.
(§1) 3 days post treatment at the same time initial measures were made, IOP and tear film production were re-assessed to examine if effects were sustained post 1 treatment.
Effects of Compound 1 on Tear Production: Current IOP lowering glaucoma drugs eventually have effects on tear production resulting in dry eye conditions. Further, there are additional associations between dry eye and glaucoma, with co-incidence of the two conditions quite common. […] Selective 5-HT agonists/antagonists can reverse symptoms of dry eye-a very large ophthalmic market. The effects of Compound 1 on tear film production (see, for example, FIG. 6 panels A-D) were therefore assessed by a Schirmer's Tear Flo strip and measured using a digital micrometer caliper.
(§2) • Rabbits were assessed for clinically clear eyes by slit lamp ophthalmic scoring. All eyes of all rabbits were normal. • Each eye of each rabbit was then assessed for initial IOP by tonometer. • Each eye of each rabbit was assessed for tear film production by Schirmer's Tear Flo Strips at a 30 second interval of analysis. Tear measures were evaluated by a digital caliper to determine mm of tears collected. • Rabbits were sorted into two groups attempting to balance IOP numbers (one higher, one lower animal per group). • Following animals were treated with 50 μL of Control ophthalmic BSS/0.5% CMC or 0.01% R-DOI HCl in ophthalmic BSS/0.5% CMC. • Any apparent behavioral changes were continuously monitored over the next 2.5 hours. • IOP determinations were made at 30 minutes, 1 hour, 2 hours and 3 hours, 5 hours, 7 hours and 24 hours-eyes were examined closely for any adverse effects during these IOP measures. • 7 hours post treatment when IOP returned to control levels tear film production was assessed (see, for example, FIG. 9).
Effects of R-DOI on Tear Production: Current IOP lowering glaucoma drugs eventually have effects on tear production resulting in dry eye conditions. Further, there are additional associations between dry eye and glaucoma, with co-incidence of the two conditions common. […] Selective 5-HT agonists/antagonists can reverse symptoms of dry eye-a very large ophthalmic market. The effects of R-DOI on tear film production were therefore assessed by a Schirmer's Tear Flo strip and measured using a digital micrometer caliper.

Data set [4] deals with rabbits. The experiment in a line: Intraocular pressure (IOP) after topical ocular dosing in rabbits. It is filed as in vivo, rabbit. The protocol: The IOP was assessed as a component of clinical outcomes for the animals in the studies described herein. The table below represents the effect of R-DOI on IOP 2 hours after dosing with the indicated concentration of R-DOI. Eyes were individually assessed and are indicated as IOP for the right (OD) or left (OS) eye.
Each eye of each rabbit was then assessed for initial IOP by tonometer.
IOP determinations were made at 30 minutes, 1 hour, 1.5 hours and 2.5 hours-eyes were examined closely for any adverse effects during these IOP measures.
as §1
The IOP was assessed via a TonoVet rebound Tonometer. The tables herein (see, for example, FIG. 4) represent the effect of Compound 1 on IOP at time intervals within the first 2.5 hours after dosing with 0.01% Compound 1 in BSS with 0.5% CMC. Eyes were individually assessed and are indicated as IOP for the right (OD) or left (OS) eye. 3 days post treatment eyes were reassessed for IOP changes to see if the effects of treatment lasted over a prolonged period.
as §2
The IOP was assessed via a TonoVet rebound Tonometer. The tables herein (see, for example, FIGS. 10-11) represents the effect of R-DOI on IOP at the defined time intervals Eyes were individually assessed and are indicated as IOP for the right (OD) or left (OS) eye.

Data set [5] concerns rabbits. The experiment in a line: Topical ocular dosing in rabbits: observation of CNS, systemic, ocular and behavioral effects, ocular tolerability. The class given is in vivo, rabbit. Particulars: 0.01%. The protocol: Apparent Ocular Irritability • b. Induction of Inflammation • c. Reduction of Corneal Barrier Integrity • d. Dry Eye or Excessive Tearing • e. Induction of Neovascularization • f. Induction of Scleral Reddening
Parameters Assessed during 2 hour Observation Window (see, for example, FIG. 1):
Two studies were performed to determine at what dose between 0.01% and 0.1% were behavioral and/or systemic effects observed. 50 μL doses at 0.01%, 0.05%, and 0.075% per eye applied and assessments were made as indicated herein.
The application of most topical eye drops requires repeatedly dosing up to 9 times per day in order to maintain efficacy across the course of waking hours and have efficacious levels available during sleeping hours. The effects of repeated ocular dosing of R-DOI were assessed in a similar manner as described herein, with the exception that doses of 0.01% or 0.05% were applied repeatedly as outlined herein:
Animals from the acute dosing were continued through the repeated dosing study. Animals were dosed at the indicated concentration 2 times on day 1 and then dosed 4 times per day for 3 subsequent days. Doses were administered at 50 μl per eye into both eyes of the animal.
Rabbits were assessed for clinically clear eyes by slit lamp ophthalmic scoring. All eyes of all rabbits were normal.
Following balancing animals were treated with 50 μL of Control ophthalmic BSS/0.5% CMC or 0.01% Compound 1 in ophthalmic BSS/0.5% CMC.
Any behavioral changes were continuously monitored over the next 2.5 hours (FIG. 3).
We can determine if a single dose of the ocular composition of 0.01% R-DOI with 0.5% carboxymethylcellulose in ophthalmic BSS: • 1. Reproduced previous findings that R-DOI had IOP depressing effects. • 2. Produced any readily observable behavioral effects. • 3. Was tolerated by the eye without adverse ocular effects, including absence of: • a. Apparent Ocular Irritability • b. Induction of Inflammation • c. Dry Eye or Excessive Tearing • d. Induction of Scleral Reddening • 4. Reduced IOP • 5. Maintained Reduction in IOP • 6. Increased Tear Film Production
as §2

Sequence of 5-HT2A receptors (P28223 whole entry): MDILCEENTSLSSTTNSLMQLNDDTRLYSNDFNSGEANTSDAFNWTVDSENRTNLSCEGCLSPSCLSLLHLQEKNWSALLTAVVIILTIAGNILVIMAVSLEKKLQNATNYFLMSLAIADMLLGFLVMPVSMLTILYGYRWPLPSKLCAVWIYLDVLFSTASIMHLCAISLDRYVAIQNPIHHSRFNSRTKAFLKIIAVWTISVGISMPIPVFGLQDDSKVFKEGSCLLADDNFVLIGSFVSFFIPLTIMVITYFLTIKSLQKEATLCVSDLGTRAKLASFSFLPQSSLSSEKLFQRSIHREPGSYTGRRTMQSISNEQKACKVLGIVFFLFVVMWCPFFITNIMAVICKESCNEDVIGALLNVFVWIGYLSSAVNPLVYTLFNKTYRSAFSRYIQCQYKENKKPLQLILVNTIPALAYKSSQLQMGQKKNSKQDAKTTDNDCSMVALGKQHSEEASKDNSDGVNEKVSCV

Regarding `COc1cc(CC(C)N)c(OC)cc1I` (centres unmarked) [DOI, 2,5-Dimethoxy-4-iodoamphetamine], in the data set with C6 glioma cells, the IC50 (as a rule, the concentration that inhibits the measured activity by half) is 8 ± 3 nM. In addition, in data set [1], the “TGF-Induced SMAD-mediated signaling” value is reported as “Reduces TGF-Induced SMAD-mediated signaling”. Further, the “Transformation into Myofibroblasts” value in the data set on Normal Human Fibroblasts was “Prevents Transformation into Myofibroblasts”.
Turning to `O=C(c1ccc(F)cc1)C1CCN(CCn2c(=O)[nH]c3ccccc3c2=O)CC1` [ketanserin], on 5-HT2A receptors, the “selectivity for 5-HT2A receptors over 5-HT2C receptors” value is on record as ~ 20 fold.
Regarding `COc1cc(CC(C)C)c(OC)cc1CCN` [Compound 1], the “Solubility of the compound” value in data set [2] is “good with no remaining precipitates”. Moreover, the “average increase in tear film production” value in the data set with rabbits [3] (0.01% single dose, 2.5 h post treatment) turned out to be 3.4 mm. The “average increase of tear film” value in the data set with rabbits [3] (0.01% single dose, 3 days post treatment) is on record as “approximately 1.9 mm”. The “tear production as measured by Schirmer's test” value in the data set on rabbits [3] (topical ocular dose) is given as “increased tear production; also recorded: significant increase in tear production”. For the same compound, the “period for which decreased intraocular pressure was sustained post administration” value with rabbits [4] (0.01% single dose, non-diseased eye model) was “at least 3 days”. Moreover, the “IOP across the 2.5 hour observation window” value in the data set with rabbits [4] (0.01% single dose, 30 minutes, 1 hour, 1.5 hours, 2.5 hours) is given as “decreased IOP at all points across the 2.5 hour observation window”. For the same compound, the “Return to Baseline IOP” value with rabbits [4] (post single dose administration of 0.01%) is reported as “approximately 12 days”. Further, the “effect on intraocular pressure” value in the data set with rabbits [4] (single topical ocular dose) is “decreased intraocular pressure with a single dose”. Also, in the data set with rabbits [5] (50 μL per eye, both eyes, single dose), the “adverse events (ocular, systemic, behavioral or otherwise)” value is given as “No readily apparent adverse events; also recorded: No observable changes; also recorded: no adverse or abnormal events observed”. The “acute ocular toxicity, irritability or adverse ocular reactions” value with rabbits [5] (acute single dosing) is given as “did not exhibit any acute ocular toxicity, irritability or adverse ocular reactions; also recorded: did not display any signs of ocular irritability”.
